Laboratory results: patent US20160361418A1, “COMPOSITION FOR PREVENTION OR TREATMENT OF TREATMENT-RESISTANT CANCER” (priority 2014, published 2016)
“Also recorded” adds a separate entry of the source. Each block holds one compound with its values, some of them ahead of it.

Columns and labels:
ABCG2 [1] = molecular target: T1, ABCG2 (Homo sapiens, UniProt Q9UNQ0); test: Inhibition of transport function of ABCG2 (Hoechst 33342 excretion, Flp-In-293/ABCG2 cells, FACS); format: cell-based; design: expressed in transfected cells; host or cells: Flp-In-293 cells (Flp-In-293/ABCG2), with Flp-In-293/Mock as control; settings: inhibitor 1 nM to 100 μM, 5 μg/mL Hoechst 33342, 90 minutes
T1 sequence (Q9UNQ0 1-655): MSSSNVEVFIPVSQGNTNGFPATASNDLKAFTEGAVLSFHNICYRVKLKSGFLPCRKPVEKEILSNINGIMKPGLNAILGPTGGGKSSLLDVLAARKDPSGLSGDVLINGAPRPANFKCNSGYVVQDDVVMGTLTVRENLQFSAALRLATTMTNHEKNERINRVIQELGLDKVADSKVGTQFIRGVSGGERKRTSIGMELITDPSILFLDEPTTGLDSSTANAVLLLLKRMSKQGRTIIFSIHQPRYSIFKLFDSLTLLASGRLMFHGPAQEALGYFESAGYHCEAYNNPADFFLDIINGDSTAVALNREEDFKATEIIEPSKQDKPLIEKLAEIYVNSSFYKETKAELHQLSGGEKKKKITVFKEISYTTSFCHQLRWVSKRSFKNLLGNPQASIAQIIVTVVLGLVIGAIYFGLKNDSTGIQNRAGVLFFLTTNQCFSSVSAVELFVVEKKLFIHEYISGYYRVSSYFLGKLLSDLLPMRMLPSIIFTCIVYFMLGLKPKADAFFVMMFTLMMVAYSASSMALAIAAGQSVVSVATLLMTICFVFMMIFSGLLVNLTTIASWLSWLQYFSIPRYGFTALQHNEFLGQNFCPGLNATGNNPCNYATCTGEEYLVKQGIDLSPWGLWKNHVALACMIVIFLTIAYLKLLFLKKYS
Protocol: In the present experiment, using Hoechst 33342 and a plurality of tyrosine kinase inhibitors, an experiment was carried out to screen for an inhibitor of ABCG2.
Specifically, using Erlotinib, Gefitinib, Lapatinib, Imatinib, Nilotinib and Dasatinib as tyrosine kinase inhibitors, and also using an L-type calcium channel inhibitor, Verapamil, as a control, screening was carried out for inhibition of the transport function of ABCG2.
Flp-In-293 cells (Flp-In-293/ABCG2 cells), which express human ABCG2, were cultured together with Hoechst 33342 as a substrate of ABCG2 and the aforementioned tyrosine kinase inhibitors for a certain period of time. Thereafter, the level of Hoechst 33342 accumulated in individual cells was measured using FACS (Beckman Coulter). […] Specific experimental procedures are as follows.
Flp-In-293/Mock and Flp-In-293/ABCG2 were each washed with PBS (phosphate buffered saline) twice, and were then peeled using Trypsin-EDTA. 10^6 cells were suspended in a DMEM medium (2% FBS). Subsequently, 5 μg/mL Hoechst 33342 (Invitrogen) alone was added to the suspension, or 5 μg/mL Hoechst 33342 was combined with various types of inhibitors in concentrations of 1 nM to 100 μM, and the combination was then added to the suspension. The obtained mixture was cultured at 37° C. for 90 minutes. After completion of the culture, the cultured cells were washed with cold PBS (2% FBS), and were then suspended again in cold PBS (2% FBS). Thereafter, intracellular fluorescence intensity was measured using FACS (Beckman Coulter). 50,000 cells were measured for a single measurement. Hoechst 33342 accumulated in the cells was excited with UV laser, the fluorescence at […] was then detected, and the mean fluorescence intensity (MFI) of the fluorescence of the measured cells was then calculated. Based on the obtained results, the inhibitory percentage against ABCG2 was calculated.
The MFI values of Flp-In-293/Mock cells and Flp-In-293/ABCG2 cells upon addition of Hoechst 33342 alone were set at 100% and 0%, respectively. […]

ABCG2 [2] = molecular target: T1, ABCG2; settings: from earlier publication (Pharm Res. 26(2), 449-458, 2009); cited from earlier work
[3] = system: Human glioblastoma astrocytoma U87MG cells; test: Intracellular accumulation of PpIX biosynthesized from ALA (FACS fluorescence); format: cell-based; settings: 4 hours; for fluorescence intensity / intracellular accumulation of PpIX: 2 mM ALA with inhibitor 1 nM to 100 μM
Protocol: Human glioblastoma astrocytoma U87MG cells were cultured together with 2 mM ALA and Lapatinib in various concentrations for 4 hours, and thereafter, the fluorescence intensity (MFI value) of PpIX, which was biosynthesized from ALA and was accumulated in the cells during the culture, was measured using FACS (Beckman Coulter). Specific experimental procedures are as follows.
U87MG cells were washed with PBS twice, and were then peeled using Trypsin-EDTA. 10^6 cells were suspended in a low-serum DMEM medium (2% FBS). Subsequently, 2 mM ALA alone was added to the suspension, or 2 mM ALA was combined with Lapatinib or Gefitinib in a concentration from 1 nM to 100 μM, and the combination was then added to the suspension. Thereafter, the obtained mixture was cultured at 37° C. for 4 hours. After completion of the culture, the cultured cells were washed with cold PBS (2% FBS), and were then suspended again in cold PBS (2% FBS). Thereafter, intracellular fluorescence intensity was measured using FACS (Beckman Coulter). 50,000 cells were measured for a single measurement. PpIX accumulated in the cells was excited with UV laser (325 nm), the fluorescence at 575 nm was then detected, and the mean fluorescence intensity (MFI) of the fluorescence of the measured cells was then calculated. Based on the obtained results, intracellular accumulation of PpIX was relatively calculated, and inhibition of the PpIX transport of ABCG2 by Lapatinib or Gefitinib was estimated.

[4] = system: Human glioblastoma astrocytoma U87MG cells; test: ALA-PDT with Lapatinib, cell viability by MTT method; format: cell-based; settings: LED 635 nm 12 J/cm^2
Protocol: Human glioblastoma astrocytoma U87MG cells (10^6 cells) were suspended in DMEM (2% FBS), and thereafter, 10 mM ALA alone was added to the suspension, or 10 mM ALA was combined with Lapatinib in a concentration from 1 nM to 300 μM, and the combination was then added to the suspension. The obtained mixture was cultured at 37° C. for 4 hours. Thereafter, the cells were irradiated with LED having a peak at 635 nm (12 J/cm^2), and the cell viability was then measured by an MTT method. It is to be noted that the MTT method has the same measurement principle as that of the WST-8 assay, and that this is a colorimetric determination method for measuring an enzymatic activity of reducing MTT to a formazan pigment (violet).

[5] = metabolized in a living body; cited from earlier work
157NS cells = test: Photosensitivity of cancer stem cells to ALA-PDT (WST-8 cell viability); format: cell-based, human; settings: sphere type relative to non-sphere type
Protocol: (§1) Specifically, three types of brain tumor glioma stem cell lines (MD13, MD30, and 157NS cells), which had been isolated and established from brain tumor patients, were used, and an experiment was carried out to verify the photosensitivity of these cells to ALA-PDT. In preparation for the experiment, these cells were first cultured in a D-MEM/F12 culture solution containing 10% fetal calf serum (FCS) and in a D-MEM/F12 culture solution containing no FCS (containing L-glutamine, heparin, B27, EGF, and bFGF), and the shapes of the cells were then examined.
(§2) Brain tumor stem cells (MD13, MD30, and 157NS cells), which had grown to a sphere type and a non-sphere type, were treated with trypsin, and thereafter, the resulting cells were each incubated at a density of 1.0×10^6 cells/ml, together with 0.3 mM ALA, for 4 hours. Thereafter, a 405-nm laser light was applied to the cells. After the cells had been cultured for 7 days, the cell viability was measured according to a viable cell count measurement method (WST-8 assay) using water soluble tetrazolium salts as a coloring reagent.
(§3) The sphere type cells (FIG. 2B) cultured in the D-MEM/F12 culture solution containing no FCS (containing L-glutamine, heparin, B27, EGF, and bFGF) had higher sensitivity to ALA-PDT, than the non-sphere type cells (FIG. 2A) cultured in the D-MEM/F12 culture solution containing 10% FCS.

MD13 cells = test: as above; format: cell-based, human; settings: sphere type relative to non-sphere type
Protocol: as §1, §2, §3

MD30 cells = test: as above; format: cell-based, human; settings: sphere type relative to non-sphere type
Protocol: as §1, §2, §3

[6] = system: Brain tumor stem cells (MD13, MD30, and 157NS cells); test: Photosensitivity of cancer stem cells to ALA-PDT, summary over the three lines; format: cell-based, human; settings: 0.3 mM ALA 4 hours; 405-nm laser light
Protocol: as §1, §2, §3

[7] = system: brain tumor cell line A172; test: Photosensitivity of brain tumor cells to ALA-PDT (WST-8 cell viability); format: cell-based; settings: 0.3 mM ALA 4 hours, 405-nm laser light, WST-8 after 7 days
Protocol: (§4) The brain tumor cell line A172 (purchased from American Type Culture Collection) was cultured in a D-MEM/F12 culture solution containing no FCS (containing L-glutamine, heparin, B27, EGF, and bFGF). As a result, the cells formed a sphere similar to stem cells. […] The cells, which had grown to a sphere type and a non-sphere type, were treated with trypsin. Subsequently, the cells were each incubated at a density of 1.0×10^6 cells/ml, together with 0.3 mM ALA, for 4 hours, and thereafter, a 405-nm laser light was applied to the cells. After the cells had been further cultured for 7 days, the cell viability was measured by a WST-8 assay in the same manner as that of Example 2.

[8] = system: brain tumor cell line A172; test: Photosensitivity of brain tumor cells to ALA-PDT (colony formation assay); format: cell-based; settings: 0.3 mM ALA 4 hours, 405-nm laser light, colonies after 14 days
Protocol: as §4
Moreover, 500 cells were collected from A172 cells, on which ALA-PDT had been performed, and the cells were then seeded on a D-MEM agar medium containing 10% FCS and an antibiotic, followed by performing a culture for 14 days. Thereafter, the cultured cells were treated with Trypan blue containing 10% formalin, so that the cell colonies were immobilized and stained. The number of colonies each consisting of 50 or more cells was counted using a stereoscopic microscope.
In the aforementioned WST-8 assay, the cell viability can be measured based on a reduction reaction using mitochondrial NAD(P)H. On the other hand, in the colony formation assay, the proliferation ability of cells can be measured. […]

HeLa cells = test: Multiple-dose ALA-PDT on HeLa cells and therapy-resistant HeLa cells (WST8 cell viability); format: cell-based, human
Protocol: HeLa cells (human-derived uterine cervix cancer cell line; 1×10^5 cells) were seeded on a 60-mm dish, and then cultured for 24 hours. Thereafter, an anticancer agent was administered to the culture solution. […] The surviving cells (5×10^3 cells) were seeded on a 96-well plate. In the present example, these cells surviving 72 hours after administration of the anticancer agent were used as therapy-resistant cancer.
Twenty-four hours after the seeding of the surviving cells on the 96-well plate, 5-aminolevulinic acid hydrochloride (ALA) was administered to the cells, and the resulting cells were then cultured for 4 hours. Thereafter, 631-nm LED light was applied to the cells to a total dose of 60 J/cm^2, one to three times. In the case of multiple-dose light irradiation, the interval between light irradiations was set at 2 hours. Twenty-four hours after the light irradiation, the resulting cells were washed with PBS twice, and the cell viability was then measured by the WST8 assay.
The longitudinal axis in each figure indicates the percentage of cell viability in the experiment groups, while the cell viability is set at 100% when the experiment was carried out under the same conditions as those described above with the exception that ALA was not administered.

Structure (SMILES): COc1cc2ncnc(Nc3ccc(F)c(Cl)c3)c2cc1OCCCN1CCOCC1 [Gefitinib, N-(3-chloro-4-fluoro-phenyl)-7-methoxy-6-(3-morpholin-4-ylpropoxy)quinazolin-4-amine]
inhibition of ABCG2 (inhibition of the excretion of Hoechst 33342), comparison among inhibitors (ABCG2 [1]): ABCG2-inhibitory ability almost equivalent to each other; also recorded: weaker than that of Lapatinib
inhibition of ABCG2 (ABCG2 [2]): effectively inhibits ABCG2
fluorescence intensity / intracellular accumulation of PpIX [3]: intracellular accumulation of PpIX was observed, but the amount of PpIX accumulated was not as large as that in the case of inhibition by Lapatinib

inhibition of ABCG2 (inhibition of the excretion of Hoechst 33342), comparison among inhibitors (ABCG2 [1]): inhibits ABCG2 most strongly
Structure (SMILES): CS(=O)(=O)CCNCc1ccc(-c2ccc3ncnc(Nc4ccc(OCc5cccc(F)c5)c(Cl)c4)c3c2)o1 [Lapatinib, n-[3-chloro-4-[(3-fluorophenyl)methoxy]phenyl]-6-[5-[(2-methylsulfonylethylamino)methyl]-2-furyl]quinazolin-4-amine]
sensitivity of the cells to LED irradiation ([4]; 10 mM ALA with Lapatinib 1 nM to 300 μM): increased in a concentration-dependent manner
fluorescence intensity / intracellular accumulation of PpIX [3]: increased
concentration region in which ABCG2 was significantly inhibited ([3]; 2 mM ALA): ≥ 10 nM

Structure (SMILES): NCC(=O)CCC(=O)O [ALA, 5-aminolevulinic acid]
time until ALA is excreted from the body [5]: ≤ 48 h
ALA-PDT sensitivity (157NS cells): 1.8
ALA-PDT sensitivity (MD13 cells): 2.4
ALA-PDT sensitivity (MD30 cells): 1.9
cells died ([4]; 10 mM ALA alone 4 hours): approximately 50%
sensitivity to ALA-PDT of sphere type cells relative to non-sphere type cells [6]: 2 times
photosensitivity to ALA-PDT of sphere type versus non-sphere type cells (cell viability) [7]: higher photosensitivity than the non-sphere type cells
photosensitivity to ALA-PDT of sphere type versus non-sphere type cells (colony-forming ability) [8]: significantly higher photosensitivity than the non-sphere type cells
cell viability in relation to the number of light irradiations (HeLa cells; 125 to 250 μM ALA, 631-nm LED total 60 J/cm^2 in one to three irradiations): decreased depending on the number of light irradiations
ALA concentration at which the cell viability was decreased (HeLa cells; HeLa with no anticancer agent or surviving Adriamycin, Cisplatin, Etoposide or 5-Fluorouracil, 631-nm LED total 60 J/cm^2, 24 hours after): ≥ 125 µM

Structure (SMILES): C#Cc1cccc(Nc2ncnc3cc(OCCOC)c(OCCOC)cc23)c1 [Erlotinib, N-(3-ethynylphenyl)-6,7-bis(2-methoxyethoxy)-4-quinazolinamine]
inhibition of ABCG2 (inhibition of the excretion of Hoechst 33342), comparison among inhibitors (ABCG2 [1]): ABCG2-inhibitory ability almost equivalent to each other
